Source: US8415469B2, “Compounds and methods for kinase modulation, and indications therefor” (Plexxikon Inc., priority 2005, dated 2013)

Tests used:
Assay type in all cases: biochemical
B-Raf V600E = molecular target: T1, B-Raf V600E (Homo sapiens, UniProt P15056, V600E); assay: AlphaScreen kinase assay, B-Raf V600E; conditions: read-out: IC50, activity toward kinase B-Raf V600E
T1 construct: P4254. pFastBacBD-CDC37 BRAF D437-K722-X, V600E; His6 with pFastBac HT leader (TEV site) (N); made in house; host or cells: Sf9 (baculovirus; chaperone CDC37 co-expressed)
T1 sequence (P15056 with tags, fused parts or gaps V600E): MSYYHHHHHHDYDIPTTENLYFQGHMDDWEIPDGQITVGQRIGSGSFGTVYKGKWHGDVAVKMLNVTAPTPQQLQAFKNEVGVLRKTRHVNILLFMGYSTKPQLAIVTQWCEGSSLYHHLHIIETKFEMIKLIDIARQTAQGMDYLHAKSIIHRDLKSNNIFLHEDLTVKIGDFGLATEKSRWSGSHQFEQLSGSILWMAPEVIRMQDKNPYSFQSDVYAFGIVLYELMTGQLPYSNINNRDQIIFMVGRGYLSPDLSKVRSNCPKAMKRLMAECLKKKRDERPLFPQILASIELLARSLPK

Src = molecular target: T2, Src (Homo sapiens, UniProt P12931); assay: AlphaScreen kinase assay, Src; conditions: read-out: IC50, activity toward kinase Src
T2 construct: P1144. pET-N6 BI-PTP SRC V86-L536-X; made in house
T2 sequence (P12931 with tags, fused parts or gaps): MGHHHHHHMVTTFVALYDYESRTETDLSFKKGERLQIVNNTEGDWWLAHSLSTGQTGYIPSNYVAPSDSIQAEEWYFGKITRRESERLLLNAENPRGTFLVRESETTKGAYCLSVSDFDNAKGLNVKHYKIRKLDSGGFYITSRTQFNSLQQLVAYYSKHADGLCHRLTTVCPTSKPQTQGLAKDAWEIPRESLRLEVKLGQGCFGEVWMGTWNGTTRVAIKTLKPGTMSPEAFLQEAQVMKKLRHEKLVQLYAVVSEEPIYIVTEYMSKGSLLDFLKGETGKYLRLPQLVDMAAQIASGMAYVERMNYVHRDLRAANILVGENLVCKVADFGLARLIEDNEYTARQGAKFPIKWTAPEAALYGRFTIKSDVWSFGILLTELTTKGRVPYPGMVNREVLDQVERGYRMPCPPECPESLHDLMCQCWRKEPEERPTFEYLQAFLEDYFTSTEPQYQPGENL

B-Raf = molecular target: T3, B-Raf (Homo sapiens, UniProt P15056); assay: AlphaScreen kinase assay, B-Raf; conditions: read-out: IC50, activity toward kinase B-Raf
T3 construct: purchased Upstate Biotechnology
T3 sequence (P15056 whole entry): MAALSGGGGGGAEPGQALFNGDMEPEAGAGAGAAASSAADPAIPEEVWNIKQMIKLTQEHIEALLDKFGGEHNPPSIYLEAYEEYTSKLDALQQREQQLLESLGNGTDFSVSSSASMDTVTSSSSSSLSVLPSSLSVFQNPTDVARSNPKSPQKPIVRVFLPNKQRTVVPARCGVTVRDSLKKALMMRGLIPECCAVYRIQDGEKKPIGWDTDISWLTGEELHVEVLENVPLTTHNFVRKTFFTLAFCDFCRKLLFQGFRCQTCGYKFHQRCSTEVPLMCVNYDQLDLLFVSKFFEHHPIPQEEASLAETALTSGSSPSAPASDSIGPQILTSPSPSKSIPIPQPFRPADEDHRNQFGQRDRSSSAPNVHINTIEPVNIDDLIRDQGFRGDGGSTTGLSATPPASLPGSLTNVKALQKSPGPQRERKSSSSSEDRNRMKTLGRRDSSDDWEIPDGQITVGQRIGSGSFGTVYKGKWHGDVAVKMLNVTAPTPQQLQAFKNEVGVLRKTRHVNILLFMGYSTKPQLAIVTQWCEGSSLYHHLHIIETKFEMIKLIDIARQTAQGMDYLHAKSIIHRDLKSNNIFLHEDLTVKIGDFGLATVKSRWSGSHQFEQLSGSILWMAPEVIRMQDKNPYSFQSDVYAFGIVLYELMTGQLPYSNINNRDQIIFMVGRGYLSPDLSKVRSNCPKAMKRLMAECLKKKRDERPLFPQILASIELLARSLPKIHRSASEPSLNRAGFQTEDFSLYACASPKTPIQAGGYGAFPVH

Syk = Syk (Homo sapiens, UniProt P43405); assay: AlphaScreen kinase assay, Syk; conditions: read-out: IC50, activity toward kinase Syk
Source text: AlphaScreen assay was used to screen additional kinases. The assay is similarly dependent on the phosphorylation of a peptide substrate. In this assay, an antibody that recognizes phosphorylated substrate is bound to an acceptor bead. The peptide substrate is attached to biotin, which binds to a donor head that contains streptavidin. Thus phosphorylated substrate is bound by antibody and streptavidin, bringing the donor and acceptor heads into close proximity when kinase is not inhibited. The donor produces singlet oxygen which results in emission from the acceptor when they are in close proximity. Conversely, when kinase is inhibited, the donor and acceptor beads are not associated and the emission from the acceptor is reduced.
AlphaScreen assays were done using compounds dissolved in DMSO to a concentration of 20 mM. The compounds were diluted accordingly to the desired final concentrations in each sample well, using 1:3 serial dilution for a total of 8 concentration points.

Abl = molecular target: T4, Abl (Homo sapiens, UniProt P00519); assay: AlphaScreen kinase assay, Abl; conditions: read-out: activity toward kinase Abl, IC50
T4 construct: P1121. pET-SPEC BI-PTP Abl G227-V515-X; His6 (N); made in house; host or cells: E. coli (PTP1B co-expressed)
T4 sequence (P00519 with tags, fused parts or gaps): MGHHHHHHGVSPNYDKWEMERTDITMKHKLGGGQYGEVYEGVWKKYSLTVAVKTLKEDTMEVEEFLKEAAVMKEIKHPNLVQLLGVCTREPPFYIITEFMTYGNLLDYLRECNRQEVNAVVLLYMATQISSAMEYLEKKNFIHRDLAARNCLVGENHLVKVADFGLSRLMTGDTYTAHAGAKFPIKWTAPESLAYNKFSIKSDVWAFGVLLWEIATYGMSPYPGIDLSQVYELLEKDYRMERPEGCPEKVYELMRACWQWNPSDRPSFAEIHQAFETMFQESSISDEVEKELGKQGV
Procedure, shortened: (§1)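 Peptide phosphorylation detected by proximity: streptavidin donor beads bind biotinylated substrate, acceptor beads carry antibody to phosphorylated substrate, singlet oxygen transfer gives emission. Dose-response over 8 points (1:3 steps); stocks 20 mM in DMSO.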

Jnk2 = molecular target: T5, Jnk2 (Homo sapiens, UniProt P45984); assay: AlphaScreen kinase assay, Jnk2; conditions: read-out: IC50, activity toward kinase Jnk2
T5 construct: purchased Roche Protein Expression Group (Indianapolis, IN)
T5 sequence (P45984 whole entry): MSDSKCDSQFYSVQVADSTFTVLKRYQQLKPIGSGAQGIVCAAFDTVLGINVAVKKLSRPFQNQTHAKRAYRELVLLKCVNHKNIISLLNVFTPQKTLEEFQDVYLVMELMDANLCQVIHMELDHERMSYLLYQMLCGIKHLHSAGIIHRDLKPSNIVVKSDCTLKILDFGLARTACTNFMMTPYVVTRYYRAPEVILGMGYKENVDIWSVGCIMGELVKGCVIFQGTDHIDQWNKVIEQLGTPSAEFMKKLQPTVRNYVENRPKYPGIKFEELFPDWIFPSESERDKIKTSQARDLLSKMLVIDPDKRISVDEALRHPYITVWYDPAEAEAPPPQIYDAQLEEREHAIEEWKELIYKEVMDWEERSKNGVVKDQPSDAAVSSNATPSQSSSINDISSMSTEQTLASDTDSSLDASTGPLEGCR
Procedure, shortened: as §1

Ret = molecular target: T6, Ret (Homo sapiens, UniProt P07949); assay: AlphaScreen kinase assay, Ret; conditions: read-out: IC50, activity toward kinase Ret
T6 construct: P1378.pET-SF BI-PTP RET H661-R1012 HIS; made in house
T6 sequence (P07949 with tags, fused parts or gaps): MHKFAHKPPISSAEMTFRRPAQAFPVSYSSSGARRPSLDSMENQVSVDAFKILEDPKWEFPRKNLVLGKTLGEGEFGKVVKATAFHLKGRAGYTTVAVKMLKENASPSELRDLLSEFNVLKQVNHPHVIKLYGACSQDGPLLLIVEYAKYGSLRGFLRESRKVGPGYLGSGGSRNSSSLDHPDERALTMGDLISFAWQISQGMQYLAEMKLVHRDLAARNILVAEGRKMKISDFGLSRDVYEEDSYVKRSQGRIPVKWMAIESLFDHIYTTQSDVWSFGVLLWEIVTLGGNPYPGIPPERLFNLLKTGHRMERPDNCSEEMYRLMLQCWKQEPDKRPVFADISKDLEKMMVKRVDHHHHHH

Kit = molecular target: T7, Kit (Homo sapiens, UniProt P10721); assay: AlphaScreen kinase assay, Kit; conditions: read-out: IC50, activity toward kinase Kit
T7 construct: P1332.N6 BI PTP KIT M552-K948-X COD; His6 (N); made in house; host or cells: E. coli (PTP1B co-expressed)
T7 sequence (P10721 with tags, fused parts or gaps): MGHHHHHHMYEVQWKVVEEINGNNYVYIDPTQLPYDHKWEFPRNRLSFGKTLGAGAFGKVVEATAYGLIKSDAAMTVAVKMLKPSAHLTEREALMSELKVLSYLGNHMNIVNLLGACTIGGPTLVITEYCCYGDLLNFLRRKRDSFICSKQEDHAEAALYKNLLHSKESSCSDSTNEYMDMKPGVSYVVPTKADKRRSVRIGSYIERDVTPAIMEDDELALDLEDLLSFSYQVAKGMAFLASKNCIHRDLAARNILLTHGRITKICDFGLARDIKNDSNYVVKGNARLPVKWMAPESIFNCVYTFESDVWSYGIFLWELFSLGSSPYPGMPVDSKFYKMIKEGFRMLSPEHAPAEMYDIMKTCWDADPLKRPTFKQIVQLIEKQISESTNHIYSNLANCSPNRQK

Jnk3 = molecular target: T8, Jnk3 (Homo sapiens, UniProt P53779); assay: AlphaScreen kinase assay, Jnk3; conditions: read-out: IC50, activity toward kinase Jnk3
T8 construct: purchased Upstate Biotechnology
T8 sequence (P53779 whole entry): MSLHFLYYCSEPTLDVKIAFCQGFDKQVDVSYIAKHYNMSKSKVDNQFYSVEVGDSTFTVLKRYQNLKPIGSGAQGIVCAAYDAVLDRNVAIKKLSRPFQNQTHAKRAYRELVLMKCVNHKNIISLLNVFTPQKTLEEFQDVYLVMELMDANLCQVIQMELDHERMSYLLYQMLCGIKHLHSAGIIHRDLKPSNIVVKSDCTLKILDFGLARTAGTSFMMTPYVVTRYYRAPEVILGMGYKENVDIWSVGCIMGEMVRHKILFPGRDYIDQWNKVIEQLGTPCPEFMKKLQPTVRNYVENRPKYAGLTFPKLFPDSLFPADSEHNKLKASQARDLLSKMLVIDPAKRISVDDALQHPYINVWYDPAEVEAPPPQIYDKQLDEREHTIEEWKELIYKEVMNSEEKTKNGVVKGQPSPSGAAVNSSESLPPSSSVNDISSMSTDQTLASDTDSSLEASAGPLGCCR

FGFR1 = molecular target: T9, FGFR1 (Homo sapiens, UniProt P11362, C488A/C584S); assay: AlphaScreen kinase assay, FGFR1; conditions: read-out: IC50, activity toward kinase FGFR
T9 construct: P1351.pET N6 BI-PTP FGFR A458-E765-X C488A, C584S; made in house; host or cells: E. coli (PTP1B co-expressed)
T9 sequence (P11362 458-765 C488A/C584S): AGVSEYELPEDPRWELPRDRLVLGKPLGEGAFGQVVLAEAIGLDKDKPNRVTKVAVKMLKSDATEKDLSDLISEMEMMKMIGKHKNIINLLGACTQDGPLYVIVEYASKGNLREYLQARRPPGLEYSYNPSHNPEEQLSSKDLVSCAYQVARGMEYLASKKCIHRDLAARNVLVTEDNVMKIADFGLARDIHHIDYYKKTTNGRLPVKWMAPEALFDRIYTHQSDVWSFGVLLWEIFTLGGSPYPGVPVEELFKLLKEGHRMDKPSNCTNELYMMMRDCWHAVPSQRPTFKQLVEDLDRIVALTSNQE

Flt4 = molecular target: T10, Flt4 (Homo sapiens, UniProt P35916); assay: AlphaScreen kinase assay, Flt4; conditions: read-out: IC50, activity toward kinase Flt4
T10 construct: purchased ProQinase GmbH (Freiburg, Germany)
Procedure, shortened: as §1

Jnk1 = molecular target: T11, Jnk1 (Homo sapiens, UniProt P45983); assay: AlphaScreen kinase assay, Jnk1; conditions: read-out: IC50, activity toward kinase Jnk1
T11 construct: purchased Upstate Biotechnology
T11 sequence (P45983 whole entry): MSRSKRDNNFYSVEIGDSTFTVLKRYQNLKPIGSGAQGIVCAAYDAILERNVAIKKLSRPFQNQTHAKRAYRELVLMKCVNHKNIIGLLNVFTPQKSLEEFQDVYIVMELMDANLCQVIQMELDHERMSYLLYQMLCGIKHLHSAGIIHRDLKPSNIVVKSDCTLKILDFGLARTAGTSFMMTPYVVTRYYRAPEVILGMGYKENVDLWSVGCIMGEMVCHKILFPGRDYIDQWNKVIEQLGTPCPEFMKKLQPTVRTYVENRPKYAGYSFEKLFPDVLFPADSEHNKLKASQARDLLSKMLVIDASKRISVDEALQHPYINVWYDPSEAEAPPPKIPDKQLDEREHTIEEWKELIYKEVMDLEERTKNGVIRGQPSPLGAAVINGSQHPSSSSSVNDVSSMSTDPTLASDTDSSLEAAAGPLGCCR

Kdr = molecular target: T12, Kdr (Homo sapiens, UniProt P35968); assay: Z'-Lyte FRET kinase assay (Invitrogen), Kdr; conditions: read-out: IC50, activity toward kinase Kdr
T12 construct: purchased Invitrogen (assay run by Invitrogen)
T12 sequence (P35968 20-1356): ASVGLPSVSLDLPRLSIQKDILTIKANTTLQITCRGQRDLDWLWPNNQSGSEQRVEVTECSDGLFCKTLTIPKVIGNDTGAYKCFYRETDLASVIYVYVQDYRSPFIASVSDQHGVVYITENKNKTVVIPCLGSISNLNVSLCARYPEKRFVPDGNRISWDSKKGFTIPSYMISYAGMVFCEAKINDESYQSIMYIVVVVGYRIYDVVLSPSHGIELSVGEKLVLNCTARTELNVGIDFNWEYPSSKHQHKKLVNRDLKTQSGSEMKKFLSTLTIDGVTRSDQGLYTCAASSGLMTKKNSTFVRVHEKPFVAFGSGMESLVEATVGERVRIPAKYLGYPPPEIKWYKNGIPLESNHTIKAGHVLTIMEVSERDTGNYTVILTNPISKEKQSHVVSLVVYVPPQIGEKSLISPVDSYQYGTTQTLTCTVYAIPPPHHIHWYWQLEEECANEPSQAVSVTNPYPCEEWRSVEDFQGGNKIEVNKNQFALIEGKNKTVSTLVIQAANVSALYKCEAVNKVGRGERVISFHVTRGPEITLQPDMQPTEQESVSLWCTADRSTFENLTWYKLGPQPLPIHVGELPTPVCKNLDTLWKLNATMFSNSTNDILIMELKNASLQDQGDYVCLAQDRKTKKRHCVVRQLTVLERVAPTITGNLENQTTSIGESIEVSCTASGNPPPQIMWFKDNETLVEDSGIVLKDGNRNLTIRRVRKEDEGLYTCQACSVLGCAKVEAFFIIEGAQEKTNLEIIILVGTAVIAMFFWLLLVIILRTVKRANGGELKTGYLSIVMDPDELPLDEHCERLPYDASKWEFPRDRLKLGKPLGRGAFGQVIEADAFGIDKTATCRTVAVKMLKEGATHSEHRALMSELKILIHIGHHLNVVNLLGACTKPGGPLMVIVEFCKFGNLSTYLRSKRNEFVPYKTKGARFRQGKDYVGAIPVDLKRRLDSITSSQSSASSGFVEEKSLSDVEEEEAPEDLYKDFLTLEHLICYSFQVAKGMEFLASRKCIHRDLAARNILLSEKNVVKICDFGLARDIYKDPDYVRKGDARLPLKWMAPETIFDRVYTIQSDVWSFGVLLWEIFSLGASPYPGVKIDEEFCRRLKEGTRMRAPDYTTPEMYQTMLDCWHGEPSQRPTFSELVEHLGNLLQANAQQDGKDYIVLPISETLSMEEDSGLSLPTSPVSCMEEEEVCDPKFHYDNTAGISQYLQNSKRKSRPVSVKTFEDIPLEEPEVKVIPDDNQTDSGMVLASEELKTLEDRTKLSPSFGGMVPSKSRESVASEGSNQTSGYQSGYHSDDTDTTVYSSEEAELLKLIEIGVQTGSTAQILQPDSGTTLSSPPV

Btk = molecular target: T13, Btk (Homo sapiens, UniProt Q06187); assay: Z'-Lyte FRET kinase assay (Invitrogen), Btk; conditions: read-out: IC50, activity toward kinase Btk
T13 construct: purchased Invitrogen (assay run by Invitrogen)

MAPKAPK2 = molecular target: T14, MAPKAPK2 (Homo sapiens, UniProt P49137); assay: Z'-Lyte FRET kinase assay (Invitrogen), MAPKAPK2; conditions: read-out: IC50, activity toward kinase MAPKAPK2
T14 construct: purchased Invitrogen (assay run by Invitrogen)
Source text: The effect of potential modulators of kinase activity can be measured in a variety of different assays known in the art. For example, direct radiometric, indirect FRET or AlphaScreen assays may be used to assess the level of phosphorylation of a substrate in the presence of test compounds in order to determine the inhibitory affect of the compound on the kinase. Invitrogen (Carlsbad, Calif.) uses a FRET based assay for Btk, EGFR, EphB2, Flt3, lrak4, Kdr, MAP2K1, MAPKAPK2, PDGFRB, PKC theta, Stk6 and Yes. For these assays, compounds of the invention were screened by Invitrogen using Z′-Lyte™ kinase assay.
Briefly, the Invitrogen kinase assay involves use of a specific peptide substrate optimized for each kinase, containing a fluorophore at each end that make up the FRET pair. The peptide sensitivity to proteolytic cleavage depends on phosphorylation of the peptide. Non-phosphorylated peptide is cleaved by a protease while peptide phosphorylated by the kinase is not cleaved. Cleavage of the peptide disrupts the FRET between the donor (coumarin) and acceptor (fluorescein) fluorophores, resulting in an increase in the ratio of donor emission to acceptor emission. The emission ratio of coumarin to fluorescein is used to assess the reaction progress. The extent of phosphorylation is determined from the emission ratio, which is low when the kinase is active (phosphorylated peptide is not cleaved, FRET pair connected) or higher for inhibited kinase (non-phosphorylated peptide is cleaved, FRET pair separated). Thus, the assay involves a kinase reaction in the presence of varying concentrations of a given compound, a development reaction with site specific protease, and detection of the fluorescent emission ratio of coumarin and fluorscein. […] Reaction conditions for each kinase are determined to provide optimal reaction times, incubation temperature, kinase and ATP concentrations. Test samples are made up in 1× kinase buffer (50 mM HEPES pH 7.5, 50 mM MgCl2, 5 mM EGTA, 0.05% BRIJ-35) and compound at desired concentration prepared in DMSO such that the final DMSO is 1%. […] Typically, assay plates are prepared to 10 μl final volume per sample, adding 2.5 μl of compound at 4× the desired concentration in 4% DMSO (serial dilution of compound provides concentration curve), 5 μl of the desired kinase mixed with Z′-LYTE™ peptide substrate (2× in 2× kinase buffer, final peptide at 2 μM), and 2.5 μl of 4×ATP solution. All kinase except for MAP2K1 were at 10 μM ATP in the kinase reaction, while MAP2K1 was at 100 μM. Samples are mixed and the kinase reaction is incubated 1 hour at room temperature, after which 5 μl of development solution is added and mixed. After incubation for another 1 hour at room temperature, 5 μl of stop reagent is added to each sample and mixed. The fluorescence signals are measured to determine the emission ratio.

Fms = molecular target: T15, Fms (Homo sapiens, UniProt P07333); assay: AlphaScreen kinase assay, Fms; conditions: read-out: IC50, activity toward kinase Fms
T15 construct: purchased Upstate Biotechnology

Stk6 = molecular target: T16, Stk6 (Homo sapiens, UniProt O14965); assay: Z'-Lyte FRET kinase assay (Invitrogen), Stk6; conditions: read-out: IC50, activity toward kinase Stk6
T16 construct: purchased Invitrogen (Carlsbad, Calif.), screening service
T16 sequence (O14965 1-403): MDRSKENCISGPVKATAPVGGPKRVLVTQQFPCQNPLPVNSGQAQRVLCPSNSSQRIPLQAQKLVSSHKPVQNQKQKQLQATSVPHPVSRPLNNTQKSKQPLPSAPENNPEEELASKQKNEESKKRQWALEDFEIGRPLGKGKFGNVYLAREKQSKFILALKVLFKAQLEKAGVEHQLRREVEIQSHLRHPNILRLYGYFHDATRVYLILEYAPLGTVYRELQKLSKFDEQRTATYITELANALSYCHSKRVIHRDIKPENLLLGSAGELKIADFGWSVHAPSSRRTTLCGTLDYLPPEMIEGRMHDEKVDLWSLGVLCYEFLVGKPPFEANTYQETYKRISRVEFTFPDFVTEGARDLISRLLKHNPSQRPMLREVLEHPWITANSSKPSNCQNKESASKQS

Fak = molecular target: T17, Fak (Homo sapiens, UniProt Q05397); assay: AlphaScreen kinase assay, Fak; conditions: read-out: IC50, activity toward kinase Fak
T17 construct: P1358.pFastBacHtb FAK S411-Q686-X; His6 with pFastBacHTb leader (TEV site) (N); made in house; host or cells: Sf9 (baculovirus)

Flt1 = molecular target: T18, Flt1 (Homo sapiens, UniProt P17948); assay: AlphaScreen kinase assay, Flt1; conditions: read-out: IC50, activity toward kinase Flt1
T18 construct: P1826.pETN6 BI-PTP FLT1 M799-D1165-X WT; His6 (N); made in house; host or cells: E. coli (PTP1B co-expressed)
T18 sequence (P17948 with tags, fused parts or gaps): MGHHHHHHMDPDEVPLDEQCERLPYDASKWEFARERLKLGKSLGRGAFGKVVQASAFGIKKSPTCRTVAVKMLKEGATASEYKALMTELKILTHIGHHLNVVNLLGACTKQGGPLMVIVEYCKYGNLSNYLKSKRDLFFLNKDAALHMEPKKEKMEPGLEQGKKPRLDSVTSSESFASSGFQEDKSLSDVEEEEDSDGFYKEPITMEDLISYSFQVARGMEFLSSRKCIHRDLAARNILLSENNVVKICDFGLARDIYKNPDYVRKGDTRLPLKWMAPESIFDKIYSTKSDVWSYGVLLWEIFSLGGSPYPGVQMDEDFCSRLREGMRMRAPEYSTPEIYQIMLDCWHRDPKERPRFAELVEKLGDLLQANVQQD

Met = molecular target: T19, Met (Homo sapiens, UniProt P08581); assay: AlphaScreen kinase assay, Met; conditions: read-out: IC50, activity toward kinase Met
T19 construct: P1818.pETN6 BI-PTP MET G1056-G1364-X WT; His6 (N); made in house; host or cells: E. coli (PTP1B co-expressed)
Procedure, shortened: as §1

Measured: IC50

Cc1ccccc1C(=O)c1c[nH]c2ncc(-c3cccc(N)c3)cc12 [Compound P-0599]
≤ 10 µM: B-Raf V600E | Src | B-Raf | Syk | Abl | Jnk2 | Ret | Kit | Jnk3 | FGFR1 | Flt4 | Jnk1

O=C(O)/C=C/c1cccc(-c2cnc3[nH]cc(C(=O)c4cccc(Cl)c4Cl)c3c2)c1 [Compound P-0089]
≤ 10 µM: B-Raf V600E | Syk | Kdr | Ret | Jnk3 | Btk | FGFR1

COc1cccc(C(=O)c2c[nH]c3ncc(-c4ccc[nH]4)cc23)c1 [Compound P-0151]
≤ 10 µM: MAPKAPK2

COc1cccc(C(=O)c2c[nH]c3ncc(-c4cccc(/C=C/C(=O)O)c4)cc23)c1 [Compound P-0054]
≤ 10 µM: B-Raf V600E | Fms | B-Raf | Syk | Abl | Kdr | Jnk2 | Ret | Kit | Stk6 | Jnk3 | Fak | Btk | Flt1 | FGFR1 | Jnk1 | Met

O=C(c1cccc(O)c1)c1c[nH]c2ncc(-c3ccsc3)cc12 [Compound P-0448]
≤ 10 µM: B-Raf V600E | Src | B-Raf | Syk | Abl | Kdr | Jnk2 | Ret | Kit | Jnk3 | Flt1 | FGFR1 | Flt4 | Jnk1

Nc1ccc(Sc2c[nH]c3nccc(-c4cccc(CO)c4)c23)cc1 [Compound P-0077]
≤ 10 µM: MAPKAPK2 | Kdr | Stk6
